In patent US20230365592A1 (Agios Pharmaceuticals, Inc., priority 2022, published 2023):

biological target: T1, human PAH with the R408W mutation (Homo sapiens, UniProt P00439, R408W); test: Cell Based Phenylalanine Flux Assay; conditions: A375 cells expressing human PAH R408W; 24 hrs compound incubation; 13C-Tyrosine by LC-MS; average where tested multiple times; read-out: AC50;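 further: after compound treatment, cells received sepiapterin plus isotope-labelled Phenylalanine for 4 hours, then labelled Tyrosine in the medium was quantified, 10-point 2-fold dilution series run in duplicate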
T1 construct: expressed in transfected cells
T1 sequence (P00439 1-452 R408W): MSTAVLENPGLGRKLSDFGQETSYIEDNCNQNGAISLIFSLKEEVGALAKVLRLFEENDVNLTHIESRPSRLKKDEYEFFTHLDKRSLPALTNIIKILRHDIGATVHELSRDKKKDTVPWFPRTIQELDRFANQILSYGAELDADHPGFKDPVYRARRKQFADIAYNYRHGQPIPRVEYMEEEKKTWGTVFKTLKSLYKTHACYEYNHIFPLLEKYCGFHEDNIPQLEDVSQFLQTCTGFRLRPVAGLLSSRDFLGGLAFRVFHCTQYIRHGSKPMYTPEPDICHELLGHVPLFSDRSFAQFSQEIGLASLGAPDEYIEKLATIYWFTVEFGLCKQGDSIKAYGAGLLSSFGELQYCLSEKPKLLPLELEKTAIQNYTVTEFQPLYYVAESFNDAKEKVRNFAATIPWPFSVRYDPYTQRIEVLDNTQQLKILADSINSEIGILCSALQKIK

AC50 | SMILES
500 to 1000 nM | O=C(c1nc2ccccc2o1)N1CCc2[nH]cnc2[C@H]1c1cc2c(C(F)(F)F)cccn2n1 [Example 2054, (S)-benzo[d]oxazol-2-yl(4-(4-(trifluoromethyl)pyrazolo[1,5-a]pyridin-2-yl)-1,4,6,7-tetrahydro-5H-imidazo[4,5-c]pyridin-5-yl)methanone]
> 5000 nM | O=C(c1nc2ccccc2o1)N1CCc2[nH]cnc2[C@@H]1c1cc2c(C(F)(F)F)cccn2n1 [Example 2055, (R)-benzo[d]oxazol-2-yl(4-(4-(trifluoromethyl)pyrazolo[1,5-a]pyridin-2-yl)-1,4,6,7-tetrahydro-5H-imidazo[4,5-c]pyridin-5-yl)methanone]
> 5000 nM | FC(F)(F)c1nnc(N2CCc3[nH]cnc3[C@@H]2c2cc3c(C4CC4)cccn3n2)o1 [Example 2056, (R)-2-(4-(4-cyclopropylpyrazolo[1,5-a]pyridin-2-yl)-1,4,6,7-tetrahydro-5H-imidazo[4,5-c]pyridin-5-yl)-5-(trifluoromethyl)-1,3,4-oxadiazole]
< 500 nM | FC(F)(F)c1nnc(N2CCc3[nH]cnc3[C@H]2c2cc3c(C4CC4)cccn3n2)o1 [Example 2057, (S)-2-(4-(4-cyclopropylpyrazolo[1,5-a]pyridin-2-yl)-1,4,6,7-tetrahydro-5H-imidazo[4,5-c]pyridin-5-yl)-5-(trifluoromethyl)-1,3,4-oxadiazole]
500 to 1000 nM | c1cc(C2CC2)c2cc([C@@H]3c4nc[nH]c4CCN3c3nnc(C4CC4)o3)nn2c1 [Example 2059, (S)-2-cyclopropyl-5-(4-(4-cyclopropylpyrazolo[1,5-a]pyridin-2-yl)-1,4,6,7-tetrahydro-5H-imidazo[4,5-c]pyridin-5-yl)-1,3,4-oxadiazole]
500 to 1000 nM | CC(C)(F)c1nnc(C(=O)N2CCc3[nH]cnc3[C@H]2c2cc3c(C4CC4)cccn3n2)o1 [Example 2061, (S)-(4-(4-cyclopropylpyrazolo[1,5-a]pyridin-2-yl)-1,4,6,7-tetrahydro-5H-imidazo[4,5-c]pyridin-5-yl)(5-(2-fluoropropan-2-yl)-1,3,4-oxadiazol-2-yl)methanone]
< 500 nM | Fc1cccc(F)c1-c1nnc(N2CCc3[nH]cnc3[C@H]2c2cc3c(Cl)cccn3n2)o1 [Example 2063, (S)-2-(4-(4-chloropyrazolo[1,5-a]pyridin-2-yl)-1,4,6,7-tetrahydro-5H-imidazo[4,5-c]pyridin-5-yl)-5-(2,6-difluorophenyl)-1,3,4-oxadiazole]
500 to 1000 nM | Cc1c(-c2ncc(C(=O)N3CCc4[nH]cnc4[C@H]3c3cc4c(F)cccn4n3)o2)cnn1C [Example 2066, (S)-(2-(1,5-dimethyl-1H-pyrazol-4-yl)oxazol-5-yl)(4-(4-fluoropyrazolo[1,5-a]pyridin-2-yl)-1,4,6,7-tetrahydro-5H-imidazo[4,5-c]pyridin-5-yl)methanone]
> 5000 nM | Cc1c(-c2ncc(C(=O)N3CCc4[nH]cnc4[C@@H]3c3cc4c(F)cccn4n3)o2)cnn1C [Example 2067, (R)-(2-(1,5-dimethyl-1H-pyrazol-4-yl)oxazol-5-yl)(4-(4-fluoropyrazolo[1,5-a]pyridin-2-yl)-1,4,6,7-tetrahydro-5H-imidazo[4,5-c]pyridin-5-yl)methanone]
500 to 1000 nM | Cc1c(-c2ncc(C(=O)N3CCc4[nH]cnc4[C@H]3c3cc4c(C(F)F)cccn4n3)o2)cnn1C [Example 2068, (S)-(4-(4-(difluoromethyl)pyrazolo[1,5-a]pyridin-2-yl)-1,4,6,7-tetrahydro-5H-imidazo[4,5-c]pyridin-5-yl)(2-(1,5-dimethyl-1H-pyrazol-4-yl)oxazol-5-yl)methanone]
< 500 nM | Cc1cccc2cc([C@@H]3c4nc[nH]c4CCN3C(=O)c3ocnc3C3CC3)nn12 [Example 2070, (S)-(4-cyclopropyloxazol-5-yl)(4-(7-methylpyrazolo[1,5-a]pyridin-2-yl)-1,4,6,7-tetrahydro-5H-imidazo[4,5-c]pyridin-5-yl)methanone]
500 to 1000 nM | Cn1cc(-c2nc(C3CC3)c(C(=O)N3CCc4[nH]cnc4[C@H]3c3cc4c(F)cccn4n3)o2)cn1 [Example 2073, (S)-(4-cyclopropyl-2-(1-methyl-1H-pyrazol-4-yl)oxazol-5-yl)(4-(4-fluoropyrazolo[1,5-a]pyridin-2-yl)-1,4,6,7-tetrahydro-5H-imidazo[4,5-c]pyridin-5-yl)methanone]
< 500 nM | Cc1cccn2nc([C@@H]3c4nc[nH]c4CCN3C(=O)c3oc(-c4cnn(C)c4)nc3C3CC3)cc12 [Example 2074]
500 to 1000 nM | O=C(c1ncco1)N1CCc2[nH]cnc2[C@H]1c1cc2c(C(F)F)cccn2n1 [Example 2076, (S)-(4-(4-(difluoromethyl)pyrazolo[1,5-a]pyridin-2-yl)-1,4,6,7-tetrahydro-5H-imidazo[4,5-c]pyridin-5-yl)(oxazol-2-yl)methanone]
> 5000 nM | O=C(c1ncco1)N1CCc2[nH]cnc2[C@@H]1c1cc2c(C(F)F)cccn2n1 [Example 2077, (R)-(4-(4-(difluoromethyl)pyrazolo[1,5-a]pyridin-2-yl)-1,4,6,7-tetrahydro-5H-imidazo[4,5-c]pyridin-5-yl)(oxazol-2-yl)methanone]
500 to 1000 nM | O=C(c1ncco1)N1CCc2[nH]cnc2[C@H]1c1cc2c(C(F)(F)F)cccn2n1 [Example 2078, (S)-oxazol-2-yl(4-(4-(trifluoromethyl)pyrazolo[1,5-a]pyridin-2-yl)-1,4,6,7-tetrahydro-5H-imidazo[4,5-c]pyridin-5-yl)methanone]
< 500 nM | O=C(C1CCC1)N1CCc2[nH]cnc2[C@H]1c1cc2c(F)cccn2n1 [Example 2080, (S)-cyclobutyl(4-(4-fluoropyrazolo[1,5-a]pyridin-2-yl)-1,4,6,7-tetrahydro-5H-imidazo[4,5-c]pyridin-5-yl)methanone]
< 500 nM | Cc1nnc(N2CCc3[nH]cnc3[C@H]2c2cc3c(C(C)C)cccn3n2)o1 [Example 2083, (S)-2-(4-(4-isopropylpyrazolo[1,5-a]pyridin-2-yl)-1,4,6,7-tetrahydro-5H-imidazo[4,5-c]pyridin-5-yl)-5-methyl-1,3,4-oxadiazole]
> 5000 nM | CC(C)c1cccn2nc([C@H]3c4nc[nH]c4CCN3c3nnc(C(F)F)o3)cc12 [Example 2084, (R)-2-(difluoromethyl)-5-(4-(4-isopropylpyrazolo[1,5-a]pyridin-2-yl)-1,4,6,7-tetrahydro-5H-imidazo[4,5-c]pyridin-5-yl)-1,3,4-oxadiazole]
< 500 nM | CC(C)c1cccn2nc([C@@H]3c4nc[nH]c4CCN3c3nnc(C(F)F)o3)cc12 [Example 2085, (S)-2-(difluoromethyl)-5-(4-(4-isopropylpyrazolo[1,5-a]pyridin-2-yl)-1,4,6,7-tetrahydro-5H-imidazo[4,5-c]pyridin-5-yl)-1,3,4-oxadiazole]
< 500 nM | Fc1ccc(-c2nnc(N3CCc4[nH]cnc4[C@H]3c3cc4cccc(Cl)n4n3)o2)cc1 [Example 2086, (S)-2-(4-(7-chloropyrazolo[1,5-a]pyridin-2-yl)-1,4,6,7-tetrahydro-5H-imidazo[4,5-c]pyridin-5-yl)-5-(4-fluorophenyl)-1,3,4-oxadiazole]
< 500 nM | Fc1cccc(F)c1-c1nnc(N2CCc3[nH]cnc3[C@H]2c2cc3cccc(Cl)n3n2)o1 [Example 2089, (S)-2-(4-(7-chloropyrazolo[1,5-a]pyridin-2-yl)-1,4,6,7-tetrahydro-5H-imidazo[4,5-c]pyridin-5-yl)-5-(2,6-difluorophenyl)-1,3,4-oxadiazole]
< 500 nM | Cc1cccc2cc([C@@H]3c4nc[nH]c4CCN3c3nnc(-c4c(F)cccc4F)o3)nn12 [Example 2091, (S)-2-(2,6-difluorophenyl)-5-(4-(7-methylpyrazolo[1,5-a]pyridin-2-yl)-1,4,6,7-tetrahydro-5H-imidazo[4,5-c]pyridin-5-yl)-1,3,4-oxadiazole]
> 5000 nM | Fc1cccc(F)c1-c1nnc(N2CCc3[nH]cnc3[C@@H]2c2cc3cccc(C(F)F)n3n2)o1 [Example 2092, (R)-2-(4-(7-(difluoromethyl)pyrazolo[1,5-a]pyridin-2-yl)-1,4,6,7-tetrahydro-5H-imidazo[4,5-c]pyridin-5-yl)-5-(2,6-difluorophenyl)-1,3,4-oxadiazole]
< 500 nM | Fc1cccc(F)c1-c1nnc(N2CCc3[nH]cnc3[C@H]2c2cc3cccc(C(F)F)n3n2)o1 [Example 2093, (S)-2-(4-(7-(difluoromethyl)pyrazolo[1,5-a]pyridin-2-yl)-1,4,6,7-tetrahydro-5H-imidazo[4,5-c]pyridin-5-yl)-5-(2,6-difluorophenyl)-1,3,4-oxadiazole]
< 500 nM | FC(F)(F)c1ccc(N2CCc3[nH]cnc3[C@H]2c2cc3c(Cl)cccn3n2)nc1 [Example 2095, (S)-4-(4-chloropyrazolo[1,5-a]pyridin-2-yl)-5-(5-(trifluoromethyl)pyridin-2-yl)-4,5,6,7-tetrahydro-1H-imidazo[4,5-c]pyridine]
> 5000 nM | Cc1cccc2cc([C@H]3c4nc[nH]c4CCN3c3ccc(C(F)(F)F)cn3)nn12 [Example 2096, (R)-4-(7-methylpyrazolo[1,5-a]pyridin-2-yl)-5-(5-(trifluoromethyl)pyridin-2-yl)-4,5,6,7-tetrahydro-1H-imidazo[4,5-c]pyridine]

SMILES | AC50
Cn1cc(-c2nc(C3CC3)c(C(=O)N3CCc4[nH]cnc4[C@@H]3c3cc4c(F)cccn4n3)o2)cn1 [Example 2072, (R)-(4-cyclopropyl-2-(1-methyl-1H-pyrazol-4-yl)oxazol-5-yl)(4-(4-fluoropyrazolo[1,5-a]pyridin-2-yl)-1,4,6,7-tetrahydro-5H-imidazo[4,5-c]pyridin-5-yl)methanone] | > 5000 nM
